Experimental data as given in ChEMBL document CHEMBL2095176, “GSK Tuberculosis Screening Data”.
Converted amounts (≈) assume the structure as drawn.

These compounds were tested on Mycobacterium tuberculosis variant bovis BCG (assay: microbe, parasite or virus in culture).
Assay type: functional

SMILES	MIC90
COc1ccc(-c2cc3nccc(C4CCCNC4)n3n2)cc1 (stereo not drawn)	6.5 µM (≈ 2 µg/mL)
CCc1nc(N2CCNCC2)c2c(C)nn(-c3ccc(OC)cc3)c2n1	1.1 µM (≈ 0.388 µg/mL)
Cc1c(C(=O)Nc2ccccc2)nnc2cc(-c3ccccc3)nn12	3.1 µM (≈ 1.02 µg/mL)
Cn1nc(C(=O)N2CCc3sccc3C2c2cccs2)c2ccccc2c1=O (stereo not drawn)	4.6 µM (≈ 1.87 µg/mL)
CCCCOc1ccc(S(=O)(=O)NCCCn2nc(Cl)c(N3CCCNCC3)cc2=O)cc1	4.4 µM (≈ 2.19 µg/mL)
CC(C)OC(=O)COc1ccc(-c2cnc(N(C)CCc3ccncc3)nc2)cc1	8.5 µM (≈ 3.46 µg/mL)
Cc1ccc(Nc2ccc(C(=O)O)cc2N)cc1	7.9 µM (≈ 1.91 µg/mL)
Cc1cnc(N2CCN[C@@H](Cc3ccccc3)C2)nc1Oc1ccc(-n2ccnc2)cc1.O=C(O)C(F)(F)F	8.1 µM
Cc1nc2ccccn2c1C(=O)NCc1cccs1	3.9 µM (≈ 1.06 µg/mL)
O=C(NNC(=O)C1CC1C(=O)O)c1ccncc1 (stereo not drawn)	6.8 µM (≈ 1.69 µg/mL)
O=C(Nc1nc(-c2ccccn2)cs1)c1ccc2c(c1)CCCC2	6.8 µM (≈ 2.28 µg/mL)
Cn1c(=O)c(C(=O)NNC(=O)c2cccc(Cl)c2)c(O)c2ccccc21	5.3 µM (≈ 1.97 µg/mL)
Cc1cc(Br)ccc1-c1ccc(CNCC(C)O)o1 (stereo not drawn)	9.9 µM (≈ 3.21 µg/mL)
Nc1ccccc1NC1CCN(Cc2ccccc2)CC1	3.6 µM (≈ 1.01 µg/mL)
COc1cc(Cl)c(Cl)cc1C(=O)Nc1cccc2c1CCN(C)C2	4 µM (≈ 1.46 µg/mL)
O=C(Nc1nc(-c2ccccn2)cs1)c1ccc(Br)o1	3.5 µM (≈ 1.23 µg/mL)
CC(=O)N1CCc2ccc(/C=C/C(=O)O)cc21	2.1 µM (≈ 0.486 µg/mL)
O=C(NC1=NCCS1)c1sc2cc(F)ccc2c1Cl	8.2 µM (≈ 2.58 µg/mL)
COc1ccc(-c2ccc(Nc3cccc(S(=O)(=O)CCNCC(C)(C)C)c3)nc2)cn1	2.9 µM (≈ 1.32 µg/mL)
Cc1ccc(-c2nnc(NC(=O)c3ccc(C#N)cc3)o2)cc1C	3.7 µM (≈ 1.18 µg/mL)
O=S(=O)(NCC1CCCO1)c1ccc(-c2ccc(CN3CCOCC3)cc2)s1 (stereo not drawn)	4.1 µM (≈ 1.73 µg/mL)

SMILES	MIC90
CCOC(=O)CC[C@H](NC(=O)c1ccc(S(=O)(=O)Nc2ccc3nc(N)[nH]c(=O)c3c2)cc1)C(=O)OCC	2.4 µM (≈ 1.31 µg/mL)
CCSc1cccc(C(=O)Nc2nnc(-c3ccc(C)cc3C)o2)c1	5.2 µM (≈ 1.84 µg/mL)
O=C(CSc1ccccc1)Nc1nc(-c2ccccn2)cs1	6.7 µM (≈ 2.19 µg/mL)
CC1=NN(C(=O)c2ccncc2)C(O)(c2ccncc2)C1 (stereo not drawn)	2.6 µM (≈ 0.734 µg/mL)
CCn1c(-c2ccccc2)nc2c(-c3ccc(C)cc3)ncc(OCCCN)c21	8.8 µM (≈ 3.4 µg/mL)
CCCCOc1ccc(NC(=O)C2CCCCC2)cc1	8.1 µM (≈ 2.23 µg/mL)
CNc1nc(SC)nc2ccccc12	0.3 µM (≈ 0.0616 µg/mL)
O=C(NCc1ccccc1)N1CCN(Cc2ccc3c(c2)OCO3)CC1	4.9 µM (≈ 1.73 µg/mL)
CCc1c(C)nc(-n2nc(C)cc2NC(=O)c2ccccc2SC)[nH]c1=O	3.6 µM (≈ 1.38 µg/mL)
O=C(Nc1nc(-c2ccccn2)cs1)c1ccno1	1.8 µM (≈ 0.49 µg/mL)
COc1ccc(-c2nnc3sc(Cc4ccccc4)nn23)cc1	2.7 µM (≈ 0.87 µg/mL)
O=C(COc1ccc(Cl)cc1)NNC(=O)c1cccs1	4.2 µM (≈ 1.31 µg/mL)
CCCc1cc(=O)[nH]c(-n2nc(C)cc2NC(=O)c2cc3ccccc3o2)n1	1.4 µM (≈ 0.528 µg/mL)
O=C(CCSc1ccc(Cl)cc1)Nc1nc(-c2ccccn2)cs1	3.9 µM (≈ 1.47 µg/mL)
C=CCn1c(Sc2ccnc(N3CCN(c4ccncc4)CC3)n2)nnc1C(N)=O	3.3 µM (≈ 1.4 µg/mL)
c1ccc(-c2nc(N3CCCNCC3)c3ccccc3n2)cc1	2.7 µM (≈ 0.822 µg/mL)
CCOc1ccccc1NC(=O)[C@H](Cc1ccccc1)NC(=O)c1cccs1	9.5 µM (≈ 3.75 µg/mL)
Fc1ccc(-c2nnc3sc(Cc4ccccc4)nn23)cc1	8.6 µM (≈ 2.67 µg/mL)
CNC(=O)c1cc(Nc2ncc(F)c(N(C)c3ccc4c(C)[nH]nc4c3)n2)ccc1OCC1CCNCC1	8.8 µM (≈ 4.56 µg/mL)
COC(=O)c1c(NC(=O)c2c(F)c(F)c(F)c(F)c2F)sc2c1CCCCC2	2 µM (≈ 0.839 µg/mL)
Cc1cc(NC(=O)c2cc(Br)ccc2Cl)n(-c2nc(C)c(C)c(=O)[nH]2)n1	5.3 µM (≈ 2.31 µg/mL)

SMILES	MIC90
CCn1c(NC(=O)Cc2ccc(Cl)cc2)nc2ccccc21	9.8 µM (≈ 3.08 µg/mL)
Cc1ccc(-n2nc(C)c3c(N4CCCNCC4)nc(C4CC4)nc32)cc1	0.8 µM (≈ 0.29 µg/mL)
c1ccc2nc(CN3CCC4(CC3)OCCc3sccc34)ccc2c1	9.1 µM (≈ 3.19 µg/mL)
Cc1ccc(-c2nnc(C)c(N3CCCC3)n2)cc1	10 µM (≈ 2.54 µg/mL)
O=C(NCc1ccc2c(c1)OCO2)c1c(C(F)(F)F)nc2ccccn12	3.4 µM (≈ 1.24 µg/mL)
Cc1nc2c(C)cccn2c1C(=O)NCc1ccc2c(c1)OCO2	9.5 µM (≈ 3.07 µg/mL)
Cc1ccc2nc(C(F)(F)F)c(C(=O)NCc3cc(Cl)cc(Cl)c3)n2c1	0.6 µM (≈ 0.241 µg/mL)
O=C(Nc1nc(-c2ccccn2)cs1)c1cccc(S(=O)(=O)N2CCCCC2)c1	5.2 µM (≈ 2.23 µg/mL)
O=C(Nc1nncs1)c1c(O)c2ccccc2n(Cc2ccccc2)c1=O	6.9 µM (≈ 2.61 µg/mL)
Cc1cc(NC(=O)COc2ccc(Cl)cc2)n(-c2nc(C)c(C)c(=O)[nH]2)n1	4.8 µM (≈ 1.86 µg/mL)
Cc1cc(C)n(-c2nc(O)cc(-c3ccccc3)n2)n1	2 µM (≈ 0.533 µg/mL)
COc1cc(OC)c(C(=O)Nc2cccc3c2CCN(C)C3C)cc1Br (stereo not drawn)	5.5 µM (≈ 2.31 µg/mL)
COc1ccc(-c2cc3nccc(C4CCNCC4)n3n2)cc1	5.7 µM (≈ 1.76 µg/mL)
Cc1cc(N)nc2cc(-c3ccc(CCN)cc3)ccc12	9.5 µM (≈ 2.64 µg/mL)
O=C(Nc1ccc(C(=O)Nc2cccc(C3=NCCN3)c2)cc1)Nc1ccc(C2=NCCN2)cc1	4.6 µM (≈ 2.15 µg/mL)
O=C(Nc1nnc(-c2ccccc2)o1)c1ccc(F)cc1	5.8 µM (≈ 1.64 µg/mL)
Cc1n[nH]c(C)c1S(=O)(=O)NCc1nc(NCCCc2ccccc2)c2ccccc2n1	5.9 µM (≈ 2.66 µg/mL)
CC(C)N(C(=O)CSc1nc2cc(Cl)ccc2[nH]1)C(C)C	9.5 µM (≈ 3.1 µg/mL)
CC(C)Oc1ccc(C(=O)Nc2nc(-c3ccccn3)cs2)cc1	4.1 µM (≈ 1.39 µg/mL)
COc1ccc(-c2ccc(Nc3cccc(S(=O)(=O)CCN4CCc5ccccc5C4)c3)nc2)cn1	3.6 µM (≈ 1.8 µg/mL)
O=C1NN=C(c2ccc3c(c2)OCO3)N[C@H]1Cc1c[nH]c2ccccc12	6.2 µM (≈ 2.16 µg/mL)

SMILES	MIC90
COc1ccc(S(=O)(=O)Nc2ccccc2Nc2ccc(C)cc2)cc1	2.8 µM (≈ 1.03 µg/mL)
CSc1nc2ccccc2n1-c1nccc(N2CCN(CCN)CC2)n1	9.9 µM (≈ 3.66 µg/mL)
CC(C)NCc1ccc(-c2ccc(NS(=O)(=O)c3ccc(F)cc3)cc2)cc1	3.6 µM (≈ 1.43 µg/mL)
Cn1c(CNCCc2nc(C(=O)N3Cc4ccccc4C3)cs2)nc2ccccc21	8.1 µM (≈ 3.38 µg/mL)
Cc1cc(C)c2nc(N3CCN(C)CC3)cc(C)c2c1	8.9 µM (≈ 2.4 µg/mL)
COc1ccc(-c2csc(NC(=O)c3cnc(SC)nc3)n2)cc1	1.1 µM (≈ 0.394 µg/mL)
COc1ccccc1OCCCCn1c(C2CC2)nc2ccccc21	3 µM (≈ 1.01 µg/mL)
O=C(/C=C/c1ccccc1C(F)(F)F)Nc1ccc2c(c1)C1CCCN1CC2 (stereo not drawn)	7.3 µM (≈ 2.82 µg/mL)
Cc1ccc2c(Cl)c(C(=O)NC3=NCCS3)sc2c1	3.8 µM (≈ 1.18 µg/mL)
COc1ccccc1-c1cc(O)c2c(C)nn(-c3ccccc3)c2n1	2.1 µM (≈ 0.696 µg/mL)
c1ccc2c(Cc3nnc(Sc4ccnc(N5CCN(c6ccncc6)CC5)n4)n3CCCN3CCOCC3)c[nH]c2c1	2.2 µM (≈ 1.31 µg/mL)
Cc1ccc2nc(C)c(C(=O)NCc3ccco3)n2c1	1 µM (≈ 0.269 µg/mL)
CN1CCN(c2cc(-c3ccncc3)nc(-c3ccccc3)n2)CC1	8.5 µM (≈ 2.82 µg/mL)
Cc1ccc(C)c(-c2nnc(NC(=O)c3cccc(C(F)(F)F)c3)o2)c1	4.1 µM (≈ 1.48 µg/mL)
C=CCc1cc(C(=O)NC2CCC(C(C)(C)C)CC2)ccc1OC (stereo not drawn)	8.1 µM (≈ 2.67 µg/mL)
Cc1ccc2c(c1)c(=O)cc(C(F)(F)F)n2CCNC(=O)c1ccccc1F	9.4 µM (≈ 3.69 µg/mL)
O=C(CCc1cc2ccccc2o1)NNC(=O)c1cccs1	5.1 µM (≈ 1.6 µg/mL)
C[C@@H]1CN(c2ncnc3c2nc(C2CC2)n3C2CCNC2)C[C@H](C)O1 (stereo partly drawn)	7.5 µM (≈ 2.57 µg/mL)
CC1CCC(NC(=O)Nc2ccc3snnc3c2)CC1 (stereo not drawn)	7 µM (≈ 2.03 µg/mL)
O=C(c1ccc(-c2cccc(OCCN3CCC(c4ccccc4)CC3)c2)cc1)N1CCCC1	4.3 µM (≈ 1.95 µg/mL)
